Source: patent US20230390247A1, “BIPHENYL PYRROLIDINE AND BIPHENYL DIHYDROIMIDAZOLE DERIVATIVES FOR INHIBITING ACTIVITY OF 5-HT7 SEROTONIN RECEPTOR, AND PHARMACEUTICAL COMPOSITION COMPRISING SAME AS ACTIVE INGREDIENT” (priority 2020, published 2023)
pIC50: −log10 of the molar value.

What was measured:
5-HT7R [1] = target: T1, 5-HT7R (Homo sapiens (Human), UniProt P34969); test: Tango assay (β-arrestin signaling system); format: cell-based; conditions: HTLA cells transfected with 5-HT7R-TCS-tTA construct
Protocol: Tango assay was conducted using HTLA cells in order to investigate the activity of the β-arrestin signaling system. Prior to transfection, the culture medium was replaced from DMEM containing 10% FBS, 100 U/mL penicillin, 100 μg/mL streptomycin, 2 μg/mL puromycin and 100 μg/mL hygromycin B to DMEM containing 10% dialyzed FBS, 100 U/mL penicillin and 100 μg/mL streptomycin. 4 hours later, transfection was conducted using 20 μg of a 5-HT7R-TCS-tTA construct (5-HT7R Tango DNA). The transfected cells were prepared on a white, flat, clear-bottom, 384-well plate (Greiner) (15,000 cells/well, 20 μL/well) using DMEM containing 10% dialyzed FBS, 100 U/mL penicillin and 100 μg/mL streptomycin. 6 hours later, after removing the culture medium, the cells were treated with 10 μL of the compound solution. After culturing for 22 hours and removing the culture medium, the cells were treated with 20 μL of a BrightGlo reagent (Promega) diluted in a 1×HBSS, […], pH 7.4 buffer. After measuring luminescence using a Tecan microplate reader (Spark), IC50 value was obtained using the Prism 8.0 program (GraphPad Software).

5-HT7R [2] = target: T1, 5-HT7R; test: cAMP assay (luminescence-based, GloSensor); format: cell-based; conditions: HEK293 cells transfected with human 5-HT7R and GloSensor-22F
Protocol: For luminescence-based cAMP assay, HEK293 cells were cultured on a 150-mm dish. Prior to transfection, the culture medium was replaced from DMEM containing 10% FBS, 100 U/mL penicillin and 100 μg/mL streptomycin to DMEM containing 10% dialyzed FBS, 100 U/mL penicillin and 100 μg/mL streptomycin. 4 hours later, transfection was conducted using 10 μg of a human 5-HT7R plasmid and 10 μg of a GloSensor-22F plasmid (Promega). The transfected cells were prepared on a white, flat, clear-bottom, 384-well plate (Greiner) (15,000 cells/well, 20 μL/well). 6 hours later, after removing the culture medium, the cells were treated with 20 μL of a 3% Glosensor cAMP reagent containing luciferin in a 1×HBSS, […], pH 7.4 buffer. In addition, the compound of each of the examples was prepared at different concentrations in an assay buffer containing 0.1% bovine serum albumin. 30 minutes later, 10 μL of the compound solution was treated to the cells. After measuring luminescence using a Tecan microplate reader (Spark), IC50 value was obtained using the Prism 8.0 program (GraphPad Software).

T1 sequence (P34969 whole entry): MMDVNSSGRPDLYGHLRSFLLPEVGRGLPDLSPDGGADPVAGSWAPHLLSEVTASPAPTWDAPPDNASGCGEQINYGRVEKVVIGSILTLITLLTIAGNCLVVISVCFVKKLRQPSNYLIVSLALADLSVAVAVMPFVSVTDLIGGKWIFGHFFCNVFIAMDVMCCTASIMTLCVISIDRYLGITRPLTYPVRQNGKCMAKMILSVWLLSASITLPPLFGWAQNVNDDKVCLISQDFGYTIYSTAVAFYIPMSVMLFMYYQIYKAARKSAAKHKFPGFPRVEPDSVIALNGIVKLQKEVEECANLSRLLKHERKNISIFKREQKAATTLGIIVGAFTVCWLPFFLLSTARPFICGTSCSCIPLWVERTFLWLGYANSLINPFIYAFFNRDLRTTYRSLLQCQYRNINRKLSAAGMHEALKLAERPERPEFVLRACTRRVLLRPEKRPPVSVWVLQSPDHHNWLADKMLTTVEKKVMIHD

Row | inhibition at 10 µM (5-HT7R [1]) | pIC50 (5-HT7R [1]) | inhibition at 10 µM (5-HT7R [2]) | Structure (SMILES) | pIC50 (5-HT7R [2])
1 | 17.5% | 4.64 | 42.1% | c1ccc(-c2cccc(CN3CCCC3)c2)cc1 [Compound 1, 1-([1,1′-biphenyl]-3-ylmethyl)pyrrolidine] | –
2 | 25% | – | 49.5% | Cc1ccccc1-c1cccc(CN2CCCC2)c1 [Compound 5, 1-((2′-methyl-[1,1′-biphenyl]-3-yl)methyl)pyrrolidine] | –
3 | 22% | – | 38.9% | Cc1cccc(-c2cccc(CN3CCCC3)c2)c1 [Compound 6, 1-((3′-methyl-[1,1′-biphenyl]-3-yl)methyl)pyrrolidine] | –
4 | 20.6% | – | 32.5% | Cc1ccc(-c2cccc(CN3CCCC3)c2)cc1 [Compound 7, 1-((4′-methyl-[1,1′-biphenyl]-3-yl)methyl)pyrrolidine] | –
5 | 23.1% | – | 37.9% | COc1ccc(-c2cccc(CN3CCCC3)c2)cc1 [Compound 10, 1-((4′-methoxy-[1,1′-biphenyl]-3-yl)methyl)pyrrolidine] | –
6 | 19.7% | – | 51.8% | COc1ccccc1-c1cc(CN2CCCC2)ccc1Cl [Compound 19, 1-((6-chloro-2′-methoxy-[1,1′-biphenyl]-3-yl)methyl)pyrrolidine] | –
7 | 18.6% | – | 44.7% | COc1ccc(-c2cc(CN3CCCC3)ccc2Cl)cc1 [Compound 21, 1-((6-chloro-4′-methoxy-[1,1′-biphenyl]-3-yl)methyl)pyrrolidine] | –
8 | 3.3% | – | 42.7% | COc1ccccc1-c1c(Cl)ccc(CN2CCCC2)c1OC [Compound 22, 1-((6-chloro-2,6′-dimethoxy-[1,1′-biphenyl]-3-yl)methyl)pyrrolidine] | –
9 | 36% | – | 47.6% | Clc1ccccc1-c1cccc(C2=NCCN2)c1 [Compound 24, 2-(2′-chloro-[1,1′-biphenyl]-3-yl)-4,5-dihydro-1H-imidazole] | –
10 | 23.1% | – | 43% | Clc1ccc(-c2cccc(C3=NCCN3)c2)cc1 [Compound 26, 2-(4′-chloro-[1,1′-biphenyl]-3-yl)-4,5-dihydro-1H-imidazole] | –
11 | 28.8% | – | 44.6% | Cc1cccc(-c2cccc(C3=NCCN3)c2)c1 [Compound 28, 2-(3′-methyl-[1,1′-biphenyl]-3-yl)-4,5-dihydro-1H-imidazole] | –
12 | 17.2% | – | 35.2% | Cc1ccc(-c2cccc(C3=NCCN3)c2)cc1 [Compound 29, 2-(4′-methyl-[1,1′-biphenyl]-3-yl)-4,5-dihydro-1H-imidazole] | –
13 | 11.9% | – | 40.8% | COc1ccc(-c2cccc(C3=NCCN3)c2)cc1 [Compound 32, 2-(4′-methoxy-[1,1′-biphenyl]-3-yl)-4,5-dihydro-1H-imidazole] | –
14 | 14% | – | 32.8% | COc1cccc(OC)c1-c1cccc(C2=NCCN2)c1 [Compound 33, 2-(2′,6′-dimethoxy-[1,1′-biphenyl]-3-v1)-4 1 5-dihydro-1H-imidazole] | –
15 | 31.6% | – | 48.4% | Clc1ccc(C2=NCCN2)cc1-c1ccccc1 [Compound 34, 2-(6-chloro-[1,1′-biphenyl]-3-yl)-4,5-dihydro-1H-imidazole] | –

Further lines, the compound ahead of its results:

Row | Structure (SMILES) | inhibition at 10 µM (5-HT7R [1]) | pIC50 (5-HT7R [1]) | inhibition at 10 µM (5-HT7R [2]) | pIC50 (5-HT7R [2])
16 | Clc1cccc(-c2cccc(CN3CCCC3)c2)c1 [Compound 3, 1-((3′-chloro-[1,1′-biphenyl]-3-yl)methyl)pyrrolidine] | 33.2% | – | 85.9% | 5.31
17 | Clc1ccc(-c2cccc(CN3CCCC3)c2)cc1 [Compound 4, 1-((4′-chloro-[1,1′-biphenyl]-3-yl)methyl)pyrrolidine] | 14.1% | – | 38.1% | –
18 | COc1ccccc1-c1cccc(CN2CCCC2)c1 [Compound 8, 1-((2′-methoxy-[1,1′-biphenyl]-3-yl)methyl)pyrrolidine] | 18% | – | 57.1% | –
19 | COc1cccc(-c2cccc(CN3CCCC3)c2)c1 [Compound 9, 1-((3′-methoxy-[1,1′-biphenyl]-3-yl)methyl)pyrrolidine] | 16.7% | – | 67.2% | 5.19
20 | COc1cccc(OC)c1-c1cccc(CN2CCCC2)c1 [Compound 11, 1-((2′,6′-dimethoxy-[1,1′-biphenyl]-3-yl)methyl)pyrrolidine] | 5.1% | – | 32.8% | –
21 | Clc1ccc(CN2CCCC2)cc1-c1ccccc1 [Compound 12, 1-((6-chloro-[1,1′-biphenyl]-3-yl)methyl)pyrrolidine] | 26.1% | – | 80.8% | 5.31
22 | Clc1ccccc1-c1cc(CN2CCCC2)ccc1Cl [Compound 13, 1-((2′,6-dichloro-[1,1′-biphenyl]-3-yl)methyl)pyrrolidine] | 50.5% | – | 90.7% | 5.49
23 | Clc1cccc(-c2cc(CN3CCCC3)ccc2Cl)c1 [Compound 14, 1-((3′,6-dichloro-[1,1′-biphenyl]-3-yl)methyl)pyrrolidine] | 27.9% | – | 51.1% | –
24 | Clc1ccc(-c2cc(CN3CCCC3)ccc2Cl)cc1 [Compound 15, 1-((4′,6-dichloro-[1,1′-biphenyl]-3-yl)methyl)pyrrolidine] | 34.3% | – | 63.8% | 5.15
25 | Cc1ccccc1-c1cc(CN2CCCC2)ccc1Cl [Compound 16, 1-((6-chloro-2′-methyl-[1,1′-biphenyl]-3-yl)methyl)pyrrolidine] | 30.9% | – | 73.3% | 5.19
26 | Cc1cccc(-c2cc(CN3CCCC3)ccc2Cl)c1 [Compound 17, 1-((6-chloro-3′methyl-[1,1′-biphenyl]-3-yl)methyl)pyrrolidine] | 11.4% | – | 51.8% | –
27 | Cc1ccc(-c2cc(CN3CCCC3)ccc2Cl)cc1 [Compound 18, 1-((6-chloro-4′methyl-[1,1′-biphenyl]-3-yl)methyl)pyrrolidine] | 21.5% | – | 73.4% | 5.09
28 | COc1cccc(-c2cc(CN3CCCC3)ccc2Cl)c1 [Compound 20, 1-((6-chloro-3′methoxy-[1,1′-biphenyl]-3-yl)methyl)pyrrolidine] | 26% | – | 70.1% | 5.13
29 | Clc1cccc(-c2cccc(C3=NCCN3)c2)c1 [Compound 25, 2-(3′-chloro-[1,1′-biphenyl]-3-yl)-4,5-dihydro-1H-imidazole] | 43.6% | 4.98 | 50.9% | –
30 | Cc1ccccc1-c1cccc(C2=NCCN2)c1 [Compound 27, 2-(2′-methyl-[1,1′-biphenyl]-3-yl)-4,5-dihydro-1H-imidazole] | 23% | – | 55.3% | –
31 | COc1cccc(-c2cccc(C3=NCCN3)c2)c1 [Compound 31, 2-(3′-methoxy-[1,1′-biphenyl]-3-yl)-4,5-dihydro-1H-imidazole] | 27.8% | – | 72.5% | 5.24
32 | Clc1ccccc1-c1cc(C2=NCCN2)ccc1Cl [Compound 35, 2-(2′,6-dichloro-[1,1′-biphenyl]-3-yl)-4,5-dihydro-1H-imidazole] | 42% | 4.69 | 53.8% | –
